Measurements from patent publication US4496578A, “Antihypertensive sulfur-containing compounds” (Santen Pharmaceutical Co., Ltd., priority 1978, dated 1985).

Tests used:
[1] = test system: angiotensin I-converting enzyme; test: Percent inhibition of pressor response to angiotensin I in unanesthetized rats after oral administration (ACE inhibition in vivo); set-up: species or system Male Wistar strain rats
Protocol: As recently it has been clear that the compounds inhibiting angiotensin I-converting enzyme may be the curative potency against both renal hypertension and essential hypertension, the compounds of this invention are evaluated as antihypertensive agents by the following method.
Male Wistar strain rats weighing 200-300 g were used. Under ether anesthesia, polyethylene cannulae are inserted into carotid artery and jugular vein. The cannula to carotid artery is connected to an electric transducer, while the cannula to jugular vein is connected to an apparatus for continuous infusion. After the complete recovery from anesthesia, angiotensin I is infused intravenously in a dose of 300 ng/kg by the apparatus for continuous infusion, and the pressor response is recorded by polygraph (Nihon Koden, RM-150). The compounds of this invention suspended in 0.5% tragacanth solution are addministered orally in a dose of 0.3 ml per 100 g of body weight, and the pressor response to angiotensin I infused intravenously is measured with time.

[2] = test system: male ddy-std. strain mice; test: Acute toxicity test in mice; format: in vivo; conditions: intraperitoneal, suspended in 0.5% tragacanth
Protocol: The male ddy-std. strain mice (4 weeks of age, weighing 19-21 g) were placed in a breeding room of constant temperature and humidity (23±1° C., 55±5%) and fed freely pellet diet (CE-2, Clea Japan, Inc.) and water ad. libitum for a week. The mice showing the normal growth were selected for the experiment.
Test compound is suspended in 0.5% tragacanth solution, and administered intraperitoneally in a dose of 0.5 ml per 20 g B.W.

[3] = 5 min after oral dose, mg/kg: 2 1.8, 2A 1.3, 2B 1.8, 22 1.5, 22A 1.0, 22B 1.4, 32 1.7, 32C 1.3, 64 1.9
[4] = 15 min after oral dose, mg/kg: 2 1.8, 2A 1.3, 2B 1.8, 22 1.5, 22A 1.0, 22B 1.4, 32 1.7, 32C 1.3, 64 1.9
[5] = 25 min after oral dose, mg/kg: 2 1.8, 2A 1.3, 2B 1.8, 22 1.5, 22A 1.0, 22B 1.4, 32 1.7, 32C 1.3, 64 1.9
[6] = 35 min after oral dose, mg/kg: 2 1.8, 2A 1.3, 2B 1.8, 22 1.5, 22A 1.0, 22B 1.4, 32 1.7, 32C 1.3, 64 1.9
[7] = 45 min after oral dose, mg/kg: 2 1.8, 2A 1.3, 2B 1.8, 22 1.5, 22A 1.0, 22B 1.4, 32 1.7, 32C 1.3, 64 1.9
[8] = 55 min after oral dose, mg/kg: 2 1.8, 2A 1.3, 2B 1.8, 22 1.5, 22A 1.0, 22B 1.4, 32 1.7, 32C 1.3, 64 1.9
[9] = 65 min after oral dose, mg/kg: 2 1.8, 2A 1.3, 2B 1.8, 22 1.5, 22A 1.0, 22B 1.4, 32 1.7, 32C 1.3, 64 1.9
[10] = 75 min after oral dose, mg/kg: 2 1.8, 2A 1.3, 2B 1.8, 22 1.5, 22A 1.0, 22B 1.4, 32 1.7, 32C 1.3, 64 1.9
[11] = 85 min after oral dose, mg/kg: 2 1.8, 2A 1.3, 2B 1.8, 22 1.5, 22A 1.0, 22B 1.4, 32 1.7, 32C 1.3, 64 1.9
[12] = 95 min after oral dose, mg/kg: 2 1.8, 2A 1.3, 2B 1.8, 22 1.5, 22A 1.0, 22B 1.4, 32 1.7, 32C 1.3, 64 1.9
[13] = 105 min after oral dose, mg/kg: 2 1.8, 2A 1.3, 2B 1.8, 22 1.5, 22A 1.0, 22B 1.4, 32 1.7, 32C 1.3, 64 1.9
[14] = 115 min after oral dose, mg/kg: 2 1.8, 2A 1.3, 2B 1.8, 22 1.5, 22A 1.0, 22B 1.4, 32 no value, 32C 1.3, 64 1.9

| SMILES | Inhibition (%) of pressor response to angiotensin I [1, 3] | Inhibition (%) of pressor response to angiotensin I [1, 4] | Inhibition (%) of pressor response to angiotensin I [1, 5] | Inhibition (%) of pressor response to angiotensin I [1, 6] | Inhibition (%) of pressor response to angiotensin I [1, 7] | Inhibition (%) of pressor response to angiotensin I [1, 8] | Inhibition (%) of pressor response to angiotensin I [1, 9] | Inhibition (%) of pressor response to angiotensin I [1, 10] | Inhibition (%) of pressor response to angiotensin I [1, 11] | Inhibition (%) of pressor response to angiotensin I [1, 12] | Inhibition (%) of pressor response to angiotensin I [1, 13] | Inhibition (%) of pressor response to angiotensin I [1, 14] | acute toxicity, LD [2] |
| --- | --- | --- | --- | --- | --- | --- | --- | --- | --- | --- | --- | --- | --- |
| C[C@H](CS)C(=O)N1C(C(=O)O)CCC1c1ccccc1O (stereo partly drawn) [Compound 2A] | 20.0% | 40.0% | 37.5% | 36.5% | 33.7% | 30.0% | 28.2% | 20.0% | 30.0% | 24.8% | 21.0% | 20.0% |  |
| C[C@H](CSC(=O)c1ccccc1)C(=O)N1C(C(=O)O)CCC1c1ccccc1O (stereo partly drawn) [Compound 2B] | 7.9% | 36.8% | 36.8% | 36.8% | 45.7% | 31.6% | 31.6% | 31.6% | 21.1% | 21.1% | 15.8% | 15.8% |  |
| Cc1ccc(C(=O)SC[C@@H](C)C(=O)N2C(C(=O)O)CCC2c2ccccc2O)cc1 (stereo partly drawn) [Compound 2] | 39.3% | 58.1% | 64.0% | 60.0% | 73.0% | 57.2% | 55.0% | 54.5% | 42.0% | 39.5% | 42.0% | 37.0% |  |
| C[C@H](CS)C(=O)N1CSC[C@H]1C(=O)O [Compound 22A, (4R)-3-[(2S)-3-mercapto-2-methylpropanoyl]-4-thiazolidinecarboxylic acid] | 34.0% | 51.5% | 49.7% | 45.0% | 37.5% | 30.2% | 30.2% | 30.2% | 28.0% | 19.8% | 10.2% | 8.0% |  |
| C[C@H](CSC(=O)c1ccccc1)C(=O)N1CSC[C@H]1C(=O)O [Compound 22B, (4R)-3-[(2S)-S-benzoyl-3-mercapto-2-methylpropanoyl]-4-thiazoldinecarboxylic acid] | 45.4% | 60.7% | 60.6% | 45.4% | 45.4% | 45.4% | 42.4% | 36.4% | 30.3% | 21.2% | 21.2% | 21.2% |  |
| Cc1ccc(C(=O)SC[C@@H](C)C(=O)N2CSC[C@H]2C(=O)O)cc1 [Compound 22] | 45.2% | 60.4% | 51.4% | 59.0% | 55.0% | 50.8% | 55.0% | 53.5% | 49.4% | 46.5% | 39.8% | 31.6% |  |
| CC(=O)Oc1ccccc1C1SC[C@@H](C(=O)O)N1C(=O)CCSC(C)=O (stereo partly drawn) [Compound 32, (4R)-2-(2-Acetoxyphenyl)-3-(S-acetyl-3-mercaptopropanoyl)-4-thiazolidinecarboxylic acid] | 40.2% | 55.3% | 70.2% | 70.2% | 61.1% | 54.2% | 55.3% | 57.2% | 48.2% | 43.4% | 27.3% |  | > 500 mg/kg |
| O=C(O)[C@@H]1CSC(c2ccccc2O)N1C(=O)CCS (stereo partly drawn) [Compound 32C] | 53.3% | 62.9% | 64.7% | 63.7% | 54.0% | 49.3% | 47.7% | 38.8% | 34.0% | 30.0% | 30.0% | 31.0% |  |
| C[C@H](CSC(=O)c1ccccc1)C(=O)N1CSC[C@H]1C(=O)OCOC(=O)C(C)(C)C [Compound 64, (2,2-Dimethyl-1-oxopropoxy)methyl (4R)-3-[(2S)-S-benzoyl-3-mercapto-2-methylpropanoyl]-4-thiazolidinecarboxylate] | 30.0% | 59.5% | 69.5% | 59.9% | 55.7% | 53.5% | 47.1% | 37.2% | 36.5% | 30.8% | 27.8% | 24.5% |  |
